Data as given in PubChem BioAssay AID2060359 (Molecular Pharmacology Branch, DTP, NCI, 2025).

Tested on: 276233-004-R-J1-PDC spheroids with HUVEC/MSC, viability
Test: Anticancer human tumor 276233-004-R-J1-PDC patient-derived colon adenocarcinoma cell line growth inhibition [TAK]
Conditions: for IC50: curve of first compound; for viability, T/C: stronger effect = lower value
From the text: Combinatorial screen of targeted agents with TAK-243 and ipatasertib in multi-cell type tumor spheroids
A high-throughput screen of multi-cell type tumor spheroids was designed to identify active combinations of targeted small molecules and TAK-243 or ipatasertib. Complex spheroids include a stromal component modeled by human endothelial cells (HUVEC) and fibroblasts modeled by human mesenchymal stem cells (MSCs). The concentration ranges selected for each drug and investigational agent were based upon clinically achievable concentrations if the clinical Cmax of the agent was known.
Compounds. The drugs and investigational agents: TAK-243 (785004), ipatasertib (767898), everolimus (733504), selumetinib (741078), bortezomib (756655), trametinib (758246), ixazomib (758254), vemurafenib (761431), dabrafenib (764134), sapanisertib (764658), alpelisib (765974), and copanlisib (816437), were obtained from the National Cancer Institute (NCI) Developmental Therapeutics Program Chemical Repository. The FDA-approved anticancer drug set is available from the NCI Developmental Therapeutics Program. […] The stock solutions were prepared in dimethyl sulfoxide (DMSO, Sigma-Aldrich, St. Louis, MO, cat. D2650) at 800-fold the tested concentration and stored at -70 degrees C prior to their use. All drugs and investigational agents were tested over a range starting from a high concentration at or near the clinical Cmax and decreasing in half-log increments. If the clinical Cmax for an agent had not been determined, the highest concentration tested was 10 microM.
NCI60 Cell Culture. NCI60 cell lines were obtained from the NCI Developmental Therapeutics Program Tumor Repository. For each lot of cells, the Repository performed Applied Biosystems AmpFLSTR Identifiler testing with PCR amplification to confirm consistency with the published Identifier STR profile for each cell line. Cells were kept in continuous culture for no more than 20 passages. The optimal seeding densities for each of the cell lines at each time point assessed were determined prior to performing the concentration response studies. Briefly, the NCI60 human tumor lines were grown as monolayers in RPMI 1640 medium supplemented with 10% FBS and 2 mmol/L L-glutamine.
An additional 2 lines were from the NCI60 cell line panel including melanomas, MALME-3M and SK-MEL-2. Pooled donor human umbilical vein endothelial cells (HUVEC, Lonza, cat. CC-2519) and human mesenchymal stem cells (hMSC, Lonza, cat. PT-2501) were purchased from Lonza (Walkersville, MD).
PDMR cell lines were grown in complete medium (DC medium): Dulbecco's modified Eagle's medium (DMEM)/F12 supplemented with 5% fetal bovine serum (FBS), 2 mM L-glutamine, 100 U/mL penicillin and 100 µg/ml streptomycin, 0.4 µg/ml hydrocortisone, 10 ng/ml epidermal growth factor (EGF) recombinant human protein, 24 µg/mL adenine, and 0.1 mg/mL primocin. During culture from frozen stock vials, PDMR cells were cultured in the same medium containing 10 µM Y-27632 (see Table 3). The PDCs were cultured in complete DMEM/F12 media without 10 microM Y-27632 dihydrochloride for at least two passages prior to the screen. The pooled donor HUVEC and hMSC were cultured in endothelial cell growth medium 2 (PromoCell, Heidelberg, Germany, cat. C-22011) and mesenchymal stem cell growth medium 2 (PromoCell, cat. C-28009), respectively. For all experiments, HUVEC and hMSC were used at passages </=5.
For the pre-screen, cell seeding densities were determined from a titration spanning the range from 5,000 to 313 cells per well. The mct-spheroids including 60% malignant cells, 25% HUVEC and 15% MSC dispensed as a mixture into U-bottom Ultra-Low Attachment 384-well plates (Corning, NY)
High-throughput Drug Combination Screening.
Prior to their inoculation into 384-well plates, malignant cells, HUVEC, and hMSC were removed from T flasks using TrypLE express (Thermo Fisher Scientific, cat. 12605036) and harvested by centrifugation for 5 min at 233 x g. […]

[1] = second compound 0.3 µM, first compound 0.316 µM
[2] = second compound 0.3 µM, first compound 1 µM
[3] = second compound 0.3 µM, first compound 3.16 µM
[4] = second compound 0.3 µM, first compound 10 µM
[5] = second compound 0.949 µM, first compound 0.316 µM
[6] = second compound 0.949 µM, first compound 1 µM
[7] = second compound 0.949 µM, first compound 3.16 µM
[8] = second compound 0.949 µM, first compound 10 µM
[9] = second compound 3 µM, first compound 0.316 µM
[10] = second compound 3 µM, first compound 1 µM
[11] = second compound 3 µM, first compound 3.16 µM
[12] = second compound 3 µM, first compound 10 µM
[13] = second compound 9.49 µM, first compound 0.316 µM
[14] = second compound 9.49 µM, first compound 1 µM
[15] = second compound 9.49 µM, first compound 3.16 µM
[16] = second compound 9.49 µM, first compound 10 µM
[17] = second compound 30 µM, first compound 0.316 µM
[18] = second compound 30 µM, first compound 1 µM
[19] = second compound 30 µM, first compound 3.16 µM
[20] = second compound 30 µM, first compound 10 µM
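Note: spheroids exposed to drugs for seven days before the viability read.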

`Cc1nc(NC(=O)N2CCCC2C(N)=O)sc1-c1ccnc(C(C)(C)C(F)(F)F)c1` (stereo not given) + CC(C)NCC(C(=O)N1CCN(c2ncnc3c2C(C)CC3O)CC1)c1ccc(Cl)cc1 showed an IC50 (second compound 0.3 µM) of 7.12 µM, an IC50 (second compound 0.949 µM) of 0.988 µM and an IC50 (second compound 3 µM) of 2.69 µM. The IC50 (second compound 9.49 µM) was 2.01 µM, the IC50 (second compound 30 µM) was < 0.0316 µM and the viability, T/C (second compound 0.3 µM, first compound 0.0316 µM) was 95.3%. For the same molecule, the viability, T/C (second compound 0.3 µM, first compound 0.1 µM) was 77%, the viability, T/C [1] was 79.2% and the viability, T/C [2] was 69.4%. It also gave a viability, T/C [3] of 60.1%, a viability, T/C [4] of 44.7% and a viability, T/C (second compound 0.949 µM, first compound 0.0316 µM) of 77.3%. For the same molecule, the viability, T/C (second compound 0.949 µM, first compound 0.1 µM) was 78.8%, the viability, T/C [5] was 71.9% and the viability, T/C [6] was 49.4%. It also gave a viability, T/C [7] of 50.9%, a viability, T/C [8] of 40.9% and a viability, T/C (second compound 3 µM, first compound 0.0316 µM) of 63.7%. The viability, T/C (second compound 3 µM, first compound 0.1 µM) was 77.3%, the viability, T/C [9] was 67.5% and the viability, T/C [10] was 58%. For the same molecule, the viability, T/C [11] was 46.3%, the viability, T/C [12] was 50.8% and the viability, T/C (second compound 9.49 µM, first compound 0.0316 µM) was 54.5%. For the same molecule, the viability, T/C (second compound 9.49 µM, first compound 0.1 µM) was 64.5%, the viability, T/C [13] was 63% and the viability, T/C [14] was 55.8%. For the same molecule, the viability, T/C [15] was 46%, the viability, T/C [16] was 39.8% and the viability, T/C (second compound 30 µM, first compound 0.0316 µM) was 39.1%. It also gave a viability, T/C (second compound 30 µM, first compound 0.1 µM) of 40.9%, a viability, T/C [17] of 34% and a viability, T/C [18] of 32.9%. The viability, T/C [19] was 27.4% and the viability, T/C [20] was 24.5%.

`CC(C)CC(NC(=O)C(Cc1ccccc1)NC(=O)c1cnccn1)B(O)O` (stereo not given) + CC(C)NCC(C(=O)N1CCN(c2ncnc3c2C(C)CC3O)CC1)c1ccc(Cl)cc1 gave an IC50 (second compound 0.3 µM) of 0.00601 µM, an IC50 (second compound 0.949 µM) of 0.00535 µM and an IC50 (second compound 3 µM) of 0.00383 µM. It also gave an IC50 (second compound 9.49 µM) of 0.00436 µM, an IC50 (second compound 30 µM) of 0.00138 µM and a viability, T/C (second compound 0.3 µM, first compound 31.6 pM) of 103%. For the same molecule, the viability, T/C (second compound 0.3 µM, first compound 0.0001 µM) was 100%, the viability, T/C (second compound 0.3 µM, first compound 0.000316 µM) was 109% and the viability, T/C (second compound 0.3 µM, first compound 0.001 µM) was 109%. It also gave a viability, T/C (second compound 0.3 µM, first compound 0.00316 µM) of 104%, a viability, T/C (second compound 0.3 µM, first compound 0.01 µM) of 6.95% and a viability, T/C (second compound 0.949 µM, first compound 31.6 pM) of 105%. The viability, T/C (second compound 0.949 µM, first compound 0.0001 µM) was 106%, the viability, T/C (second compound 0.949 µM, first compound 0.000316 µM) was 147% and the viability, T/C (second compound 0.949 µM, first compound 0.001 µM) was 96.8%. The viability, T/C (second compound 0.949 µM, first compound 0.00316 µM) was 82.9%, the viability, T/C (second compound 0.949 µM, first compound 0.01 µM) was 13% and the viability, T/C (second compound 3 µM, first compound 31.6 pM) was 73.4%. The viability, T/C (second compound 3 µM, first compound 0.0001 µM) was 79.4%, the viability, T/C (second compound 3 µM, first compound 0.000316 µM) was 81.7% and the viability, T/C (second compound 3 µM, first compound 0.001 µM) was 80.3%. For the same molecule, the viability, T/C (second compound 3 µM, first compound 0.00316 µM) was 59.1%, the viability, T/C (second compound 3 µM, first compound 0.01 µM) was 4.72% and the viability, T/C (second compound 9.49 µM, first compound 31.6 pM) was 61%. The viability, T/C (second compound 9.49 µM, first compound 0.0001 µM) was 80.3%, the viability, T/C (second compound 9.49 µM, first compound 0.000316 µM) was 73.4% and the viability, T/C (second compound 9.49 µM, first compound 0.001 µM) was 66%. It also gave a viability, T/C (second compound 9.49 µM, first compound 0.00316 µM) of 67.7%, a viability, T/C (second compound 9.49 µM, first compound 0.01 µM) of 4.19% and a viability, T/C (second compound 30 µM, first compound 31.6 pM) of 56%. For the same molecule, the viability, T/C (second compound 30 µM, first compound 0.0001 µM) was 53.2%, the viability, T/C (second compound 30 µM, first compound 0.000316 µM) was 55.3% and the viability, T/C (second compound 30 µM, first compound 0.001 µM) was 61.4%. It also gave a viability, T/C (second compound 30 µM, first compound 0.00316 µM) of 33.3% and a viability, T/C (second compound 30 µM, first compound 0.01 µM) of 20.5%.

For `CCCS(=O)(=O)Nc1ccc(F)c(C(=O)c2c[nH]c3ncc(-c4ccc(Cl)cc4)cc23)c1F` + CC(C)NCC(C(=O)N1CCN(c2ncnc3c2C(C)CC3O)CC1)c1ccc(Cl)cc1, the IC50 (second compound 0.3 µM) was > 100 µM, the IC50 (second compound 0.949 µM) was > 100 µM and the IC50 (second compound 3 µM) was > 100 µM. The IC50 (second compound 9.49 µM) was > 100 µM, the IC50 (second compound 30 µM) was > 100 µM and the viability, T/C [1] was 83.8%. It also gave a viability, T/C [2] of 99.5%, a viability, T/C [3] of 96.9% and a viability, T/C [4] of 102%. It also gave a viability, T/C (second compound 0.3 µM, first compound 31.6 µM) of 95.7%, a viability, T/C (second compound 0.3 µM, first compound 100 µM) of 120% and a viability, T/C [5] of 86.9%. It also gave a viability, T/C [6] of 89.7%, a viability, T/C [7] of 86.4% and a viability, T/C [8] of 69.3%. It also gave a viability, T/C (second compound 0.949 µM, first compound 31.6 µM) of 87.2%, a viability, T/C (second compound 0.949 µM, first compound 100 µM) of 86.9% and a viability, T/C [9] of 72.7%. For the same molecule, the viability, T/C [10] was 77.3%, the viability, T/C [11] was 91.2% and the viability, T/C [12] was 76.9%. It also gave a viability, T/C (second compound 3 µM, first compound 31.6 µM) of 68.7%, a viability, T/C (second compound 3 µM, first compound 100 µM) of 74.5% and a viability, T/C [13] of 63.8%. The viability, T/C [14] was 70%, the viability, T/C [15] was 72.2% and the viability, T/C [16] was 62.8%. For the same molecule, the viability, T/C (second compound 9.49 µM, first compound 31.6 µM) was 92.2%, the viability, T/C (second compound 9.49 µM, first compound 100 µM) was 68.8% and the viability, T/C [17] was 68.4%. It also gave a viability, T/C [18] of 61.8%, a viability, T/C [19] of 79% and a viability, T/C [20] of 72.1%. It also gave a viability, T/C (second compound 30 µM, first compound 31.6 µM) of 59.5% and a viability, T/C (second compound 30 µM, first compound 100 µM) of 63.5%.
